Laboratory results as given in ChEMBL document CHEMBL1131681, “Thiazolo[4,5-d]pyrimidine thiones and -ones as corticotropin-releasing hormone (CRH-R1) receptor antagonists” (Bioorg Med Chem Lett, 1999).

biological target: T1, Corticotropin-releasing factor receptor 1 (Homo sapiens, UniProt P34998); experiment: Binding affinity against human Corticotropin releasing factor receptor 1 expressed in HEK 293E cells using [125I]TYR-oCRH; type: cell-based, HEK293
T1 sequence (P34998 whole entry): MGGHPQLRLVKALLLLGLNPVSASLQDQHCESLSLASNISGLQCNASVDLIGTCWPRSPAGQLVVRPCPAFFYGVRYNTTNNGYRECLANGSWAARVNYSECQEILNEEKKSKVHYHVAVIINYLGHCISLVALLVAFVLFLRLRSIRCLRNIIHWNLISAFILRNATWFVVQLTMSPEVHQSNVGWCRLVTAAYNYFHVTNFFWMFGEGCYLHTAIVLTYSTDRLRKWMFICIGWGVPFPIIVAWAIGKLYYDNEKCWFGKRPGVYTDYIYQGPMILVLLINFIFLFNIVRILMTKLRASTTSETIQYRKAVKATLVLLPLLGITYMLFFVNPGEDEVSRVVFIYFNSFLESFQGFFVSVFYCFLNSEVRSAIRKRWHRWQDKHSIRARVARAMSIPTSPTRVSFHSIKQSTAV

| Compound | Ki |
| --- | --- |
| CCCN(CC1CC1)c1nc(C)nc2c1sc(=S)n2-c1ccc(C(C)C)cc1Br | 0.0126 µM |
| CCN(CC)c1nc(C)nc2c1sc(=O)n2-c1c(C)cc(C)cc1C | 0.0145 µM |
| CCC(C)N(c1nc(C)nc2c1sc(=S)n2-c1ccc(C(C)C)cc1Br)C(C)CC (stereo not given) | 0.0454 µM |
| CCN(CC)c1nc(C)nc2c1sc(=O)n2-c1ccc(C(C)C)cc1Br | 0.0094 µM |
| COCCN(CCOC)c1nc(C)nc2c1sc(=O)n2-c1ccc(C(C)C)cc1Br | 0.0145 µM |
| Cc1nc(N2CCOCC2)c2sc(=S)n(-c3ccc(C(C)C)cc3Br)c2n1 | 0.122 µM |
| CCCN(CC1CC1)c1nc(C)nc2c1sc(=O)n2-c1c(C)cc(C)cc1C | 0.0162 µM |
| CCCCN(CC)c1nc(C)nc2c1sc(=S)n2-c1ccc(C(C)C)cc1Br | 0.0239 µM |
| CCCN(CC1CC1)c1nc(C)nc2c1sc(=S)n2-c1c(C)cc(C)cc1C | 0.0131 µM |

More lines, in order of falling Ki, values ahead:

| Ki | Compound |
| --- | --- |
| 0.0092 µM | CCN(CC)c1nc(C)nc2c1sc(=S)n2-c1c(C)cc(C)cc1C |
| 0.0086 µM | COCCN(CCOC)c1nc(C)nc2c1sc(=S)n2-c1c(C)cc(C)cc1C |
| 0.0066 µM | COCCN(CCOC)c1nc(C)nc2c1sc(=S)n2-c1ccc(C(C)C)cc1Br |
| 0.005 µM | COCCN(CCOC)c1nc(C)nc2c1sc(=O)n2-c1c(C)cc(C)cc1C |
| 0.0041 µM | CCN(CC)c1nc(C)nc2c1sc(=S)n2-c1ccc(C(C)C)cc1Br |
| 0.0041 µM | CCCN(CC1CC1)c1nc(C)nc2c1sc(=O)n2-c1ccc(C(C)C)cc1Br |
